The source made the active and inactive calls. The rule behind the calls is not given here.
How the values were obtained:
[1] = Chemical stability in PBS buffer at pH 7.4 assessed as compound remaining measured at 15 mins by RF-MS analysis; assay type: physicochemical; conditions: read-out: Stability
K562 = assay: Cytotoxicity against human K562 cells assessed as reduction in cell viability incubated for 72 hrs by MTS assay; assay type: functional, cell-based; conditions: K562, 72 h
CEM-DNR = assay: Cytotoxicity against human CEM-DNR cells assessed as reduction in cell viability incubated for 72 hrs by MTS assay; assay type: functional, cell-based
[2] = Apparent permeability of the compound in MDCK-MDR1 cells at 10 uM incubated for 1 hr by RF-MS analysis; assay type: ADME, cell-based, Canis lupus familiaris; conditions: dog
[3] = Cytotoxicity against human MRC5 cells assessed as reduction in cell viability incubated for 72 hrs by MTS assay; assay type: toxicity, cell-based
CCRF-CEM [4] = assay: Cytotoxicity against human CCRF-CEM cells assessed as reduction in cell viability incubated for 72 hrs by MTS assay; assay type: functional, cell-based
[5] = Stability in human liver microsomes assessed as compound remaining at 2 uM measured at 30 mins in presence of NADPH by RF-MS analysis; assay type: ADME, Microsome; conditions: read-out: Stability
[6] = Stability in human plasma assessed as compound remaining at 2 uM measured at 15 mins by RF-MS analysis; assay type: ADME, cell-free; conditions: read-out: Stability
[7] = Apparent permeability of the compound in MDCK-MDR1 cells assessed as drug recovery at 10 uM incubated for 1 hr by RF-MS analysis; assay type: ADME, cell-based, Canis lupus familiaris; conditions: dog, read-out: Drug recovery
[8] = Chemical stability in PBS buffer at pH 7.4 assessed as compound remaining measured at 120 mins by RF-MS analysis; assay type: physicochemical; conditions: read-out: Stability
[9] = Stability in human plasma assessed as compound remaining at 2 uM measured at 30 mins by RF-MS analysis; assay type: ADME, cell-free; conditions: read-out: Stability
[10] = Cytotoxicity against human HCT116-p53-null cells assessed as reduction in cell viability incubated for 72 hrs by MTS assay; assay type: functional, cell-based
[11] = Cytotoxicity against human K562-Tax cells assessed as reduction in cell viability incubated for 72 hrs by MTS assay; assay type: functional, cell-based
[12] = Plasma protein binding in human at 10 uM by rapid equilibrium dialysis based RF-MS analysis; assay type: ADME, cell-free; conditions: read-out: PB (converted)
HCT-116 [13] = assay: Cytotoxicity against human HCT-116 cells assessed as reduction in cell viability incubated for 72 hrs by MTS assay; assay type: functional, cell-based; conditions: HCT-116, 72 h
HeLa = assay: Antitumor activity in human HeLa cells cultured as spheroids assessed as inhibition of spheroid opening at 1 uM incubated for 3 days; assay type: functional, cell-based; conditions: time 3.0 day
[14] = Cytotoxicity against human BJ cells assessed as reduction in cell viability incubated for 72 hrs by MTS assay; assay type: toxicity, cell-based
[15] = Efflux ratio of apparent permeability across basolateral to apical side over apical to basolateral side in MDCK-MDR1 cells; assay type: ADME, cell-based, Canis lupus familiaris; conditions: dog
U2OS = assay: Cytotoxicity against human U2OS cells assessed as reduction in cell viability incubated for 72 hrs by MTS assay; assay type: functional, cell-based
[16] = Stability in human liver microsomes assessed as compound remaining at 2 uM measured at 15 mins in presence of NADPH by RF-MS analysis; assay type: ADME, Microsome; conditions: read-out: Stability
[17] = Chemical stability in PBS buffer at pH 7.4 assessed as compound remaining measured at 30 mins by RF-MS analysis; assay type: physicochemical; conditions: read-out: Stability
[18] = Stability in human liver microsomes assessed as compound remaining at 2 uM measured at 60 mins in presence of NADPH by RF-MS analysis; assay type: ADME, Microsome; conditions: read-out: Stability
[19] = Chemical stability in PBS buffer at pH 7.4 assessed as compound remaining measured at 60 mins by RF-MS analysis; assay type: physicochemical; conditions: read-out: Stability
A549 = assay: Cytotoxicity against human A549 cells assessed as reduction in cell viability incubated for 72 hrs by MTS assay; assay type: functional, cell-based; conditions: A549, 72 h
HCT-116 [20] = assay: Antitumor activity in human HCT-116 cells cultured as spheroids assessed as inhibition of cell growth at 10 uM incubated for 3 days; assay type: functional; parameters: scale not given: the % may be the effect or the level left; conditions: time 3 day
[21] = Stability in human plasma assessed as compound remaining at 2 uM measured at 60 mins by RF-MS analysis; assay type: ADME, cell-free; conditions: read-out: Stability
[22] = Stability in human plasma assessed as compound remaining at 2 uM measured at 120 mins by RF-MS analysis; assay type: ADME, cell-free; conditions: read-out: Stability
CCRF-CEM [23] = assay: Induction of apoptosis in human CCRF-CEM cells assessed as necrotic cells at 5 times IC50 incubated for 24 hrs by Annexin V and propidium iodide staining based flow cytometry analysis […]; assay type: functional
CCRF-CEM [24] = assay: Induction of apoptosis in human CCRF-CEM cells assessed as decrease in c-Myc expression at 1 to 5 times IC50 incubated for 24 hrs by Western blot analysis; assay type: functional, cell-based
CCRF-CEM [25] = assay: Induction of apoptosis in human CCRF-CEM cells assessed as increase in Noxa expression at 1 to 5 times IC50 incubated for 24 hrs by Western blot analysis; assay type: functional, cell-based
CCRF-CEM [26] = assay: Induction of apoptosis in human CCRF-CEM cells assessed as accumulation of Bid protein expression at 1 to 5 times IC50 incubated for 24 hrs by Western blot analysis; assay type: functional, cell-based
CCRF-CEM [27] = assay: Induction of apoptosis in human CCRF-CEM cells assessed as early apoptotic cells at 1 time IC50 incubated for 24 hrs by Annexin V and propidium iodide staining based flow cytometry analysis (reference value: […]); assay type: functional
CCRF-CEM [28] = assay: Induction of apoptosis in human CCRF-CEM cells assessed as accumulation of Bax protein expression at 1 to 5 times IC50 incubated for 24 hrs by Western blot analysis; assay type: functional, cell-based
CCRF-CEM [29] = assay: Induction of apoptosis in human CCRF-CEM cells assessed as early apoptotic cells at 5 times IC50 incubated for 24 hrs by Annexin V and propidium iodide staining based flow cytometry analysis […]; assay type: functional
CCRF-CEM [30] = assay: Induction of apoptosis in human CCRF-CEM cells assessed as viable cells at 5 times IC50 incubated for 24 hrs by Annexin V and propidium iodide staining based flow cytometry analysis […]; assay type: functional
CCRF-CEM [31] = assay: Induction of apoptosis in human CCRF-CEM cells assessed as viable cells at 1 time IC50 incubated for 24 hrs by Annexin V and propidium iodide staining based flow cytometry analysis […]; assay type: functional
CCRF-CEM [32] = assay: Induction of apoptosis in human CCRF-CEM cells assessed as PARP cleavage at 1 to 5 times IC50 incubated for 24 hrs by Western blot analysis; assay type: functional, cell-based
CCRF-CEM [33] = assay: Induction of apoptosis in human CCRF-CEM cells assessed as late apoptotic cells at 1 time IC50 incubated for 24 hrs by Annexin V and propidium iodide staining based flow cytometry analysis (reference value: […]); assay type: functional
CCRF-CEM [34] = assay: Induction of apoptosis in human CCRF-CEM cells assessed as necrotic cells at 1 time IC50 incubated for 24 hrs by Annexin V and propidium iodide staining based flow cytometry analysis (reference value: 0.0%); assay type: functional
CCRF-CEM [35] = assay: Induction of apoptosis in human CCRF-CEM cells assessed as late apoptotic cells at 5 times IC50 incubated for 24 hrs by Annexin V and propidium iodide staining based flow cytometry analysis […]; assay type: functional
CCRF-CEM [36] = assay: Induction of mitochondrial damage in human CCRF-CEM cells at >= 10 uM incubated for 4 hrs by light microscopic analysis; assay type: functional, cell-based
CCRF-CEM [37] = assay: Induction of mitochondrial changes in human CCRF-CEM cells at 10 uM incubated for 4 hrs by electron microscopic analysis; assay type: functional, cell-based
[38] = Drug localization in human CCRF-CEM cells assessed as MT-CO2 signal at 10 uM incubated for 4 hrs by click reaction analysis; assay type: ADME, cell-based

Row | SMILES | IC50 (K562) [nM] | IC50 (CEM-DNR) [nM] | IC50 at 72 h [3] [nM] | IC50 (CCRF-CEM [4]) [nM] | IC50 [10] [nM] | IC50 [11] [nM] | IC50 (HCT-116 [13]) [nM] | Activity (HeLa) | IC50 at 72 h [14] [nM] | IC50 (U2OS) [nM] | IC50 (A549) [nM] | Activity (HCT-116 [20]) [%] | Activity (CCRF-CEM [23]) [%] | Activity (CCRF-CEM [27]) [%] | Activity (CCRF-CEM [29]) [%] | Activity (CCRF-CEM [30]) [%] | Activity (CCRF-CEM [31]) [%] | Activity (CCRF-CEM [33]) [%] | Activity (CCRF-CEM [34]) [%] | Activity (CCRF-CEM [35]) [%] | other results
1 | C=C(C=O)[C@@H]1CC[C@]2(C(=O)OCc3cn([C@H]4O[C@H](COC(C)=O)[C@@H](OC(C)=O)[C@H](OC(C)=O)[C@H]4OC(C)=O)nn3)CC[C@]3(C)[C@H](CC[C@@H]4[C@@]5(C)CC[C@H](O)C(C)(C)[C@@H]5CC[C@]43C)[C@@H]12 | 1400 | 1600 | 1700 | 600 | 1700 | 1600 | 1600 | Active | 1800 | 1700 | 1800 | 100 |  |  |  |  |  |  |  |  | remaining at 0.25 h [1]: 97.1%; Papp at 1 h, 10 µM [2]: 0.32 ×10⁻⁶ cm/s; remaining at 0.5 h, 2 µM [5]: 82.7%; remaining at 0.25 h, 2 µM [6]: 93.9%; recovery at 1 h, 10 µM [7]: 103%; remaining at 2 h [8]: 83.8%; remaining at 0.5 h, 2 µM [9]: 88.7%; fraction unbound at 10 µM [12]: 0.0015; efflux ratio [15]: 3.77; remaining at 0.25 h, 2 µM [16]: 95.6%; remaining at 0.5 h [17]: 92.5%; remaining at 1 h, 2 µM [18]: 66.6%; remaining at 1 h [19]: 89.2%; remaining at 1 h, 2 µM [21]: 87%; remaining at 2 h, 2 µM [22]: 82.3%
2 | C=C(C=O)[C@@H]1CC[C@]2(C(=O)OCc3cn([C@H]4O[C@H](COC(C)=O)[C@@H](OC(C)=O)[C@H](OC(C)=O)[C@H]4OC(C)=O)nn3)CC[C@]3(C)[C@H](CC[C@@H]4[C@@]5(C)Cc6nccnc6C(C)(C)[C@@H]5CC[C@]43C)[C@@H]12 (stereo in doubt) | 1200 | 1500 | 1800 | 750 | 1700 | 2700 | 1500 | Active | 2300 | 1600 | 1800 | 100 | 1 | 53.8 | 56 | 5.3 | 18.1 | 23.9 | 4.1 | 37.7 | remaining at 0.25 h [1]: 99.9%; Activity (CCRF-CEM [24]): Active; Activity (CCRF-CEM [25]): Active; Papp at 1 h, 10 µM [2]: 0.12 ×10⁻⁶ cm/s; remaining at 0.5 h, 2 µM [5]: 95.7%; Activity (CCRF-CEM [26]): Active; remaining at 0.25 h, 2 µM [6]: 104%; recovery at 1 h, 10 µM [7]: 77.6%; remaining at 2 h [8]: 85.2%; remaining at 0.5 h, 2 µM [9]: 97.2%; fraction unbound at 10 µM [12]: 0.0017; Activity (CCRF-CEM [28]): Active; efflux ratio [15]: 4.49; remaining at 0.25 h, 2 µM [16]: 96.8%; remaining at 0.5 h [17]: 91.1%; remaining at 1 h, 2 µM [18]: 58.9%; Activity (CCRF-CEM [32]): Active; remaining at 1 h [19]: 87.8%; remaining at 1 h, 2 µM [21]: 88.7%; remaining at 2 h, 2 µM [22]: 88.5%
3 | C=C(C=O)[C@@H]1CC[C@]2(C(=O)O)CC[C@]3(C)[C@H](CC[C@@H]4[C@@]5(C)Cc6nccnc6C(C)(C)[C@@H]5CC[C@]43C)[C@@H]12 |  |  |  |  |  |  |  | Active |  |  |  | 100 | 0.5 | 5.5 | 54 | 2.7 | 85.1 | 3.6 | 5.8 | 42.8 | Activity (CCRF-CEM [24]): Active; Activity (CCRF-CEM [25]): Active; Activity (CCRF-CEM [26]): Active; Activity (CCRF-CEM [28]): Active; Activity (CCRF-CEM [32]): Active; Activity (CCRF-CEM [36]): inactive
4 | C=C(C)[C@@H]1CC[C@]2(C(=O)O)CC[C@]3(C)[C@H](CC[C@@H]4[C@@]5(C)Cc6nccnc6C(C)(C)[C@@H]5CC[C@]43C)[C@@H]12 |  |  |  |  |  |  |  | Active |  |  |  | 100 | 4.5 | 1.7 | 0.8 | 92 | 92.3 | 2.2 | 3.7 | 2.6 | Activity (CCRF-CEM [37]): Active; Activity (CCRF-CEM [36]): inactive
5 | C#CCOC(=O)[C@]12CC[C@@H](C(=C)C=O)[C@@H]1[C@H]1CC[C@@H]3[C@@]4(C)Cc5nccnc5C(C)(C)[C@@H]4CC[C@@]3(C)[C@]1(C)CC2 | 1600 | 1700 | 6600 | 430 | 6300 | 1400 | 7000 |  | 7200 | 1400 | 1700 |  |  |  |  |  |  |  |  |  | Drug uptake [38]: Active
6 | C#CCOC(=O)[C@]12CC[C@@H](C(=C)C)[C@@H]1[C@H]1CC[C@@H]3[C@@]4(C)Cc5nccnc5C(C)(C)[C@@H]4CC[C@@]3(C)[C@]1(C)CC2 | > 50000 | 50000 | > 50000 | 45000 | > 50000 | > 50000 | > 50000 |  | > 50000 | > 50000 | > 50000 |  |  |  |  |  |  |  |  |  | Drug uptake [38]: Not Active

From ChEMBL document CHEMBL5352436, “Triterpenoid pyrazines and pyridines - Synthesis, cytotoxicity, mechanism of action, preparation of prodrugs” (Eur J Med Chem, 2022)
